ChEMBL document CHEMBL1201862, “PubChem BioAssay data set” (2004)
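Following 48 hours of exposure in 96-well plates, responses at five concentrations were used to interpolate endpoints linearly. Here, GI50 denotes the concentration required for 50% inhibition of growth.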 The source made the active and inactive calls. Cut-off read from the data, not from the text of the source: active = GI50 up to about 1.1 µM and inactive = higher.

Experiments:
Assay in all cases: NCI anticancer screen, dose series, 48 h
[1] = tested on: OVCAR-8
[2] = tested on: HOP-92
[3] = tested on: HOP-62
[4] = tested on: MOLT-4
[5] = tested on: SW-620
[6] = tested on: COLO 205
[7] = tested on: HL-60
[8] = tested on: NCI-H226
[9] = tested on: RXF 393
[10] = tested on: NCI-H522
[11] = tested on: Malme-3M
[12] = tested on: UACC-257
[13] = tested on: EKVX
[14] = tested on: CCRF-CEM
[15] = tested on: BT-549
[16] = tested on: MDA-MB-435
[17] = tested on: SN12C
[18] = tested on: HCT-15
[19] = tested on: MDA-MB-231

Measured: GI50

C/C(CC(=O)Nc1cc(C)ccc1C)=N\NC(=O)c1ccncc1
inactive: [1] > 100 µM | [2] 79.6 µM | [3] > 100 µM | [4] > 100 µM | [5] > 100 µM | [6] > 100 µM | [7] > 100 µM | [8] > 100 µM | [9] > 100 µM | [10] 78 µM | [11] > 100 µM | [12] > 100 µM | [13] > 100 µM | [14] > 100 µM

O=C(/N=N/c1ccccc1Cl)NNc1ccccc1Cl
60.7 µM: [18]
inactive: [15] > 10 µM | [1] 27.6 µM | [3] 9.48 µM | [4] 29.3 µM | [5] 40.7 µM | [7] 19.2 µM | [8] > 100 µM | [16] 31 µM | [10] 23.6 µM | [17] 61.7 µM | [11] 67 µM | [19] 54.3 µM | [12] > 100 µM | [14] 22.2 µM

O=C(NC(=S)Nc1ccc(Br)cc1)c1ccc2c(c1)Sc1ccccc1S2
inactive: [15] 39.1 µM | [1] 17.3 µM | [2] 15.8 µM | [3] 16.1 µM | [4] 7.53 µM | [5] 31.6 µM | [6] 41.8 µM | [7] 17.5 µM | [8] 23.4 µM | [16] 94.4 µM | [10] 23.1 µM | [17] 18.8 µM | [11] 24.4 µM | [19] 17.6 µM | [12] 21.7 µM | [14] 16.5 µM
38 µM: [18]

CCOP(=O)(OCC)C(F)(F)c1ccc(CC(NC(=O)OC(C)(C)C)C(=O)O)cc1 (stereo unspecified)
> 10 µM: [18]
inactive: [15] > 10 µM | [1] > 10 µM | [2] > 10 µM | [3] 5.15 µM | [4] > 10 µM | [5] > 10 µM | [6] > 10 µM | [8] > 10 µM | [16] > 10 µM | [17] > 10 µM | [11] > 10 µM | [19] > 10 µM | [12] > 10 µM | [13] > 10 µM | [14] > 10 µM

COc1ccc(/C=C2/C(C)=NN(c3cccc(Cl)c3)/C2=N/c2nc3ccccc3s2)cc1
17.5 µM: [18]
inactive: [1] 22.6 µM | [2] 20.9 µM | [3] 20 µM | [4] 24.9 µM | [5] 22.7 µM | [7] 20.7 µM | [8] 22.3 µM | [9] 12 µM | [16] 33.7 µM | [10] 19.1 µM | [19] 24.7 µM | [12] 22.6 µM | [13] 40.2 µM | [14] 25.3 µM

NC(=O)NC(=O)c1cccc(CNc2ccc(C(=O)N[C@@H](CCC(=O)O)C(=O)O)cc2)n1
inactive: [15] > 100 µM | [1] > 100 µM | [2] > 100 µM | [4] > 100 µM | [5] > 100 µM | [6] > 100 µM | [7] > 100 µM | [8] > 100 µM | [16] > 100 µM | [10] > 100 µM | [17] > 100 µM | [19] > 100 µM | [12] > 100 µM | [13] > 100 µM
> 100 µM: [18]

OCSc1nn(CO)c(=S)s1
inactive: [1] 10.5 µM | [2] 11.4 µM | [3] 21.8 µM | [4] 23.4 µM | [5] 28.1 µM | [6] 28.1 µM | [7] 18 µM | [8] 31.6 µM | [9] 16.9 µM | [16] 18.4 µM | [10] 17 µM | [17] 21.2 µM | [11] 22.5 µM | [19] 28.1 µM | [12] 23 µM | [13] 33.7 µM | [14] 6.79 µM
18.3 µM: [18]

O=C(Cc1nc2c3c(ccc2nc1O)C(=O)c1ccccc1C3=O)C(=O)Nc1ccccc1[N+](=O)[O-]
> 10 µM: [18]
inactive: [1] 17.1 µM | [2] 20.7 µM | [3] 18.3 µM | [4] 4.22 µM | [5] 12.3 µM | [6] 15.2 µM | [7] 14.5 µM | [8] 20.6 µM | [10] 5.27 µM | [17] > 10 µM | [11] 19.1 µM | [12] 17.7 µM | [13] 17.5 µM | [14] 2.51 µM

O=[N+]([O-])c1ccc(CSc2nncc3[nH]cnc23)cc1
inactive: [15] 85.3 µM | [1] > 100 µM | [2] 10.6 µM | [3] > 100 µM | [4] > 100 µM | [5] > 100 µM | [6] > 100 µM | [7] > 100 µM | [8] > 100 µM | [16] 93.1 µM | [10] > 100 µM | [17] > 100 µM | [11] 66.8 µM | [19] > 100 µM | [12] > 100 µM | [13] > 100 µM | [14] > 100 µM
> 100 µM: [18]

CN(C)Cc1cc(C(=O)/C=C/c2ccc(Br)cc2)cc(CN(C)C)c1O
inactive: [1] 4.03 µM | [2] 3.33 µM | [3] 4.33 µM | [4] 3.91 µM | [5] 4.25 µM | [6] 1.67 µM | [7] 3.4 µM | [8] 17.3 µM | [9] 2.05 µM | [16] 14.3 µM | [10] 3.93 µM | [17] 2.84 µM | [11] 16.6 µM | [19] 3.21 µM | [12] 6.53 µM | [13] 13.2 µM | [14] 3.24 µM
11.8 µM: [18]

CN(C)/C=[N+]1/[C@@H](Cc2ccccc2)C(=O)O[B-]1(F)c1ccccc1 (stereo partly specified)
inactive: [15] > 100 µM | [1] > 100 µM | [2] > 100 µM | [3] > 100 µM | [4] > 100 µM | [5] > 100 µM | [6] > 100 µM | [7] > 100 µM | [8] > 100 µM | [16] > 100 µM | [17] > 100 µM | [11] > 100 µM | [19] > 100 µM | [12] > 100 µM | [13] > 100 µM | [14] > 100 µM
> 100 µM: [18]

N#Cc1nc(-c2cccnc2)oc1N
inactive: [2] > 100 µM | [3] > 100 µM | [4] 74 µM | [5] > 100 µM | [6] > 100 µM | [7] > 100 µM | [8] > 100 µM | [9] > 100 µM | [16] > 100 µM | [10] > 100 µM | [17] > 100 µM | [11] > 100 µM | [19] > 100 µM | [12] > 100 µM | [13] > 100 µM | [14] > 100 µM
> 100 µM: [18]

COc1ccc2c(c1)CCC1=C/C(=N\NC(N)=O)CCC12C (stereo unspecified)
inactive: [15] > 10 µM | [1] > 10 µM | [2] > 10 µM | [3] > 10 µM | [4] > 10 µM | [5] > 10 µM | [6] > 10 µM | [7] 9.62 µM | [16] 5.24 µM | [10] > 10 µM | [17] > 10 µM | [11] > 10 µM | [19] > 10 µM | [12] > 10 µM | [14] > 10 µM
> 10 µM: [18]

COC(C/C(=C/CO[Si](C(C)C)(C(C)C)C(C)C)C(=O)Nc1ccccc1I)OC
inactive: [1] 33 µM | [2] 19 µM | [3] 38.2 µM | [4] 11.8 µM | [5] 45.4 µM | [6] 9.75 µM | [8] 28.5 µM | [9] 2.39 µM | [16] 26.7 µM | [10] 1.53 µM | [17] 26.9 µM | [19] 12.5 µM | [12] 32.6 µM | [14] 9.68 µM
19.1 µM: [18]
active: [11] 0.0676 µM

Cc1ccc(S(=O)(=O)N(CC(O)COc2ccccc2)c2ccc(F)cc2F)cc1 (stereo unspecified)
active: [2] 0.122 µM
inactive: [1] 17.3 µM | [3] 15.5 µM | [4] 22.8 µM | [5] 16.5 µM | [6] 15.3 µM | [7] 15.7 µM | [8] 18.8 µM | [9] 11.9 µM | [16] 16.1 µM | [17] 15.3 µM | [11] 16 µM | [19] 17.4 µM | [12] 17.9 µM | [13] 14.7 µM | [14] 18.9 µM
17.1 µM: [18]

Cc1cnc2c(c1)C(=O)N(c1ccc(Br)cc1)S2(=O)=O
> 100 µM: [18]
inactive: [15] > 100 µM | [1] > 100 µM | [3] 50.5 µM | [4] > 100 µM | [5] > 100 µM | [6] > 100 µM | [7] 30.1 µM | [8] 78 µM | [16] > 100 µM | [10] 19.5 µM | [17] > 100 µM | [11] 35.6 µM | [19] > 100 µM | [12] > 100 µM | [13] 35.6 µM | [14] > 100 µM

COc1ccc(-c2cc(O)c3ccc(F)cc3n2)cc1
inactive: [1] > 100 µM | [2] > 100 µM | [3] > 100 µM | [4] > 100 µM | [5] > 100 µM | [6] > 100 µM | [7] > 100 µM | [8] > 100 µM | [9] > 100 µM | [10] > 100 µM | [17] > 100 µM | [11] > 100 µM | [12] > 100 µM | [13] > 100 µM | [14] > 100 µM
